21 molecules from patent US20260159854A1, “NOVEL CARRIERS FOR NUCLEIC ACID AND/OR PROTEIN DELIVERY” (LUDWIG-MAXIMILIANS-UNIVERSITÄT MÜNCHEN, priority 2022, published 2026) can be followed below.

The test system of data set [1] is N2a tumor-bearing A/J mice. As to the kind of experiment: Ex vivo luciferase expression after intravenous injection of mRNA polyplexes. The data set is classed as in vivo.
Procedure: Neuro2a cells (10^6 cells/150 μL PBS) were inoculated subcutaneously into the left flank of 6-week-old female A/J mice (Envigo RMS GmbH, Dusseldorf, Germany). Mice were randomly divided into groups of three (in the case of mRNA LNPs) or five (in the case of mRNA polyplexes) and were housed in isolated ventilated cages under specific pathogen free conditions with a 12 h day/night interval, and food and water ad libitum. Weight and general well-being were monitored continuously. Tumor size was measured with a caliper and determined by formula: a*b^2/2 (a=longest side of the tumor; b=widest side vertical to a). When tumors reached a size of 250-500 mm3, the experiments were performed by intravenous tail vein injection of polyplexes or LNPs formed as described in 6.1 and 6.3, containing 1 μg, 3 μg or 10 μg of stabilized firefly luciferase encoding mRNA (CleanCap™ FLuc mRNA (5moU); Trilink Biotechnologies, San Diego, CA, USA) in 150 μL HBG. Polyplexes containing 10 μg mRNA were dialyzed for 1 h at 4° C. against HBG (dialysis membrane MWCO 100-500 Da; Spectra/Por®, Carl Roth, Karlsruhe, Germany) prior to application to remove small amounts of ethanol. […] The luciferase gene expression was determined as described above and is presented as relative light units (RLU) per gram (g) tumor/organ.
To evaluate luciferase mRNA delivery by an ex vivo luciferase gene expression assay, organ and tumor tissues were homogenized in Luciferase Cell Culture Lysis Reagent 1× (Promega, Mannheim, Germany), supplemented with 1% (v/v) protease and phosphatase inhibitor cocktail (Sigma-Aldrich, Munich, Germany) using a tissue and cell homogenizer (FastPrep®-24, MP Biomedicals, USA). […] Luciferase activity in 25 μL supernatant was measured in a Centro LB 960 plate reader luminometer (Berthold Technologies, Bad Wildbad, Germany) for 10 sec after addition of 100 μL/well of a LAR buffer solution (20 mM glycylglycine, 1.0 mM MgCl2, 0.10 mM EDTA, 3.3 mM DTT, 0.55 mM ATP, and 0.27 mM coenzyme A; pH 8-8.5) supplemented with 5% (v/v) of a mixture of 10 mM luciferin and 29 mM glycylglycine.
For the next data set, the system named is HeLa cells. As to the kind of experiment: CellTiterGlo assay (relative metabolic activity). Type of data set: cell-based. The note with it: mRNA polyplexes, 25% of the standard mRNA dose of 250 ng/well, vs 1621. The procedure: HeLa cells were seeded 24 h prior to transfection (5000 cells/well) in 96-well plates. Immediately prior to transfection, the medium was replaced with suitable amounts of fresh medium containing 10% (v/v) FBS to reach a final volume of 100 μL during transfection. The nanoparticles were prepared as described in section 6.1 and transfected with indicated doses. The medium was removed at 24 h after transfection, and 25 μL of fresh, pre-warmed medium as well as 25 μL of CellTiterGlo® Reagent (Promega, Mannheim, Germany) were added to each well [S. Berger et al., Biomacromolecules 2021, 22, 1282; A. Krhač Levačić et al., J Controlled Release 2021, 339, 27]. After incubation on an orbital shaker for 30 min at RT, luminescence was recorded using a Centro LB 960 plate reader luminometer (Berthold Technologies, Bad Wildbad, Germany). The luminescent signals (in RLU) of the samples were normalized to the luminescent signal of the negative control (HBG buffer-treated control cells). Results were presented as relative metabolic activity related to the negative control. Experiments were performed as triplicates.
For orientation: In ATP-based viability assays light output follows the ATP content of the culture.

Data set [2] is described as follows: Particle size, polydispersity and zeta potential measurement (DLS, ELS). Type of data set: physicochemical. Set-up: Zeta / Size: unit not given here. The procedure:
6.6 Particle Size and Zeta Potential Measurement for pDNA, mRNA, siRNA, Cas9 mRNA/sgRNA and Cas9 mRNA/sgRNA/ssDNA Polyplexes as Well as mRNA LNPs
Measurements of size and zeta potential were performed with a Zetasizer Nano ZS (Malvern Instruments, Malvern, Worcestershire, U.K.) in a folded capillary cell (DTS1070) by dynamic and electrophoretic laser-light scattering (DLS, ELS). […] Samples were measured three times with six sub runs per measurement. For measurement of the zeta potential, all samples were diluted to 800 μL with HBG or HEPES (for siRNA polyplexes) directly before measurement. Parameters were identical to the size measurement apart from an equilibration time of 60 sec. Three measurements with 15 sub runs lasting 10 sec each were performed, and zeta potentials were calculated by the Smuchowski equation.

Data set [3] concerns N2a cells. As to the kind of experiment: Co-delivery efficiency of mRNA/pDNA polyplexes by flow cytometry. The data set is classed as cell-based, murine. The settings on record: N/P 18, 25 and 50 ng combined nucleic acid/well. The procedure: CleanCap® mCherry mRNA (5moU) (Trilink Biotechnologies, San Diego, CA, USA) and pEGFP-N1 pDNA (Clontech Laboratories, Inc. (now Takara Bio USA, Inc., San Jose, CA, USA)) at a fixed weight ratio of 1:1 were mixed and diluted in HBG. Calculated amounts of aminolipid at indicated N/P (nitrogen/phosphate) ratios (see above) were diluted in separate tubes of HBG. Equal volumes of nucleic acid solution and aminolipid solution were mixed by rapid pipetting and incubated 40 min at RT in a closed Eppendorf reaction tube. The final concentration of nucleic acid in the polyplex solution was 5 μg/mL (2.5 μg/mL mCherry mRNA plus 2.5 μg/mL pEGFP-N1 pDNA).
mRNA/pDNA polyplex treatments were performed in triplicate in 96-well plates. N2a cells were seeded 24 h prior to transfection (10,000 cells/well). On the next day, the medium was replaced with 80 μL of fresh pre-warmed medium containing 10% (v/v) FBS. The nanoparticles were prepared as described above, and the volumes of 10 and 5 μL of polyplex solution (2.5 μg/mL mCherry mRNA and 2.5 μg/mL pEGFP-N1 pDNA) were added. 20 μL HBG buffer per well was used as negative control. After 24 h of treatment, cells were collected and re-suspended in PBS solution containing 10% (v/v) FBS (FACS buffer) for flow cytometric evaluation. All samples were analyzed by flow cytometry using a CytoFLEX S Flow Cytometer (Beckman Coulter, Brea, CA, USA). Shortly before the measurement, 1 ng/μL 4′, 6-diamidino-2-phenylindole (DAPI) was added and used to discriminate between viable and dead cells. The cellular fluorescence was assayed by excitation of DAPI at 405 nm and detection of emission at 450 nm. Only isolated viable cells were evaluated. Gates were set compared to control measurements with HBG buffer-treated cells. […] Flow cytometry data were analyzed using FlowJo™ v10.8 flow cytometric analysis software by FlowJo, LLC (Becton, Dickinson and Company, U.S.). The cellular fluorescence expression was assayed by excitation at 561 nm and 488 nm, the detection of emission at 610 nm and 530 nm for mCherry and eGFP, respectively.
For orientation: Flow cytometry measures light scatter and fluorescence of single cells or particles in a stream.

Data set [4] deals with N2a cells. Put plainly: Luciferase expression assay of pDNA polyplexes in N2a cells. Type of data set: cell-based, murine. The note with it: for dose dependence of pDNA transfection efficiency: dose titration 200, 100, 50, 26, 14 ng pCMVLuc/well; for transfection efficiency (luciferase expression) of pDNA polyplexes: 24 h, standard pDNA dose 200 ng/well, compared with LPEI N/P 6.

The test system of data set [5] is N2a cells. Put plainly: Luciferase expression assay of mRNA polyplexes in N2a cells. The data set is classed as cell-based, murine.
In the next data set the test system is Huh7 cells. Put plainly: Luciferase expression assay of pDNA polyplexes in Huh7 cells. The data set is classed as cell-based, human.
Setting [6] is: Cas9 mRNA/sgDMDex23 polyplexes, N/P 24, combined nucleic acid 12.5 μg/mL.
Setting [7] is: mRNA LNPs, 12.5 μg/mL CleanCap FLuc mRNA (5moU), N/P 9, molar ratios see Table A.
Setting [8] is: pDNA polyplexes, N/P 12, 10 μg/mL pCMVLuc.
Setting [9] is: mRNA polyplexes, 12.5 μg/mL CleanCap FLuc mRNA (5moU), N/P 12 (1611, 1719, 1722, 1732), N/P 24 (1614), N/P 18 (1621, 1747).
[10] abbreviates: PEGylated pDNA polyplexes 25% PEG, 10 μg/mL pCMVLuc.
Setting [11] is: Targeted pDNA polyplexes 12.5% PEG 2k, 12.5% PEG-GE11, 10 μg/mL pCMVLuc.
Setting [12] is: Unmodified pDNA polyplexes 0%, 10 μg/mL pCMVLuc.
[13] abbreviates: pDNA polyplexes, N/P 18, 10 μg/mL pCMVLuc.
Setting [14] is: Cas9 mRNA/sgGFP1 polyplexes, N/P 18, combined nucleic acid 5.0 μg/mL.

With `CCCCCCCCCCCCN(CCCCCCCCCCCC)CCCCCCCC(=O)NCCCC[C@H](NC(=O)CCC(=O)NCCNCCNCCNCCNC(=O)[C@@H](N)CCCCNC(=O)CCCCCCCN(CCCCCCCCCCCC)CCCCCCCCCCCC)C(=O)O` [compound 1611, K(12Oc)-Stp-K(12Oc)], in data set [1], the “in vivo toxicity / tolerability of mRNA polyplexes” value is recorded as “good tolerability”.

Take `CCCCCCCCN(CCCCCCCC)CCCCCCCC(=O)NCCCC[C@H](NC(=O)CCCCCCCN(CCCCCCCC)CCCCCCCC)C(=O)NCCSSCCNC(=O)CCC(=O)NCCCC[C@H](NC(=O)CCC(=O)NCCSSCCNC(=O)[C@H](CCCCNC(=O)CCCCCCCN(CCCCCCCC)CCCCCCCC)NC(=O)CCCCCCCN(CCCCCCCC)CCCCCCCC)C(=O)NCCNCCNCCNCCNC(=O)CCC(=O)O` [compound 1792, [(8Oc)2)-K-ssbb]2-K-Stp]: the “cell viability (relative metabolic activity, CellTiter Glo)” value with HeLa cells is on record as “significantly improved cell viability”.

As for “K(8Oc)2-Stp2-K(8Oc)-K(8Oc) [compound 1731]”, in data set [2] (setting [6]), the Z-average is recorded as 67.5 nm and the Zeta potential is given as 37.5 mV.

Regarding “K(8Oc)2-Stp-K(8Oc)-K(8Oc) [compound 1620]”, in data set [2] (setting [6]), the Pdl is given as 0.130, the Z-average is on record as 134.3 nm and the Zeta potential was determined as 22.7 mV. Also, in data set [2] (setting [7]), the Pdl is listed as 0.152, the Z-average worked out at 271.1 nm and the Zeta potential is on record as −1.41 mV.

As for K(12Bu)-Stp-K(12Bu) [compound 1763], the “mCherry mRNA/eGFP pDNA co-expression (co-delivery efficiency)” value in the data set with N2a cells [3] is recorded as “most potent structures”.

In the case of K(12He)-Stp-K(12He) [compound 1765], in the data set on N2a cells [3], the “mCherry mRNA/eGFP pDNA co-expression (co-delivery efficiency)” value was “most potent structures”.

In data set [2] (setting [8]), K(12Oc)2-Stp2 [compound 1710] gave a Pdl of 0.246 ± 0.024, a Z-average of 111.8 ± 11.4 nm and a Zeta potential of 15.6 ± 2.1 mV. For the same molecule, the “dose dependence of pDNA transfection efficiency” value in the data set on N2a cells [4] is listed as “good performance only at the highest dose”.

“K(12Oc)2-Stp2-K(12Oc)-K(12Oc) [compound 1722]”: in the data set with N2a cells [5] (24 h, dose titration 63, 31, 16 ng mRNA/well, vs succPEI and 1218), the “transfection efficiency (luciferase expression) of mRNA polyplexes” value is given as “dose-independent transfection efficiency”. In data set [2] (setting [9]), this molecule gave a Pdl of 0.339, a Z-average of 92.5 nm and a Zeta potential of 44.4 mV. In addition, the “transfection efficiency (luciferase expression) of pDNA polyplexes” value with N2a cells [4] is listed as “most potent pDNA carriers”.

“K(12Oc)2-Stp2-K[K(12Oc)2] [compound 1717]”: the “transfection efficiency (luciferase expression) of pDNA polyplexes” value with N2a cells [4] is given as “most potent pDNA carriers”.

Consider K(12Oc)2-Stp [compound 1614], for which, in data set [2] (setting [9]), the Pdl amounted to 0.223, the Z-average turned out to be 111.6 nm and the Zeta potential is 15.7 mV.

Take “K(12Oc)2-Stp-K(12Oc)-K(12Oc) [compound 1612]”: in data set [2] (setting [7]), the Pdl is on record as 0.273, the Z-average was 275.8 nm and the Zeta potential is 1.88 mV.

Turning to “K(12Oc)-(^εK-^εK-6-Ahx)-K(12Oc) [compound 1747]”, in data set [2] (setting [9]), the Pdl is 0.146, the Z-average came to 91.1 nm and the Zeta potential is reported as 17.5 mV.

As for “K(DodOc)2-Stp2-K(DodOc)-K(DodOc) [compound 1725]”, the “transfection efficiency of mRNA polyplexes, DodOc (amide) control vs LAF analog” value with N2a cells [5] (N/P 12, 62.5 ng mRNA/well) is reported as “ineffective”. In addition, the “transfection efficiency of pDNA polyplexes, DodOc (amide) control vs LAF analog” value with N2a cells [4] (N/P 12, 200 ng pCMVLuc/well) was “ineffective”.

For K[K2-K(12Oc)2]2 [compound 1851], in the data set with N2a cells [5] (15 ng mRNA/well), the “RLU values relative to Stp2 analog 1717” value is recorded as “around 10 fold”. Besides, the “transfection efficiency of mRNA polyplexes vs Stp2 analog 1717” value in the data set on N2a cells [5] (all tested N/P ratios, 50 and 15 ng mRNA/well) is listed as “outperformed its Stp2 analog”.

Consider “K[K(12Oc)2]-Stp-K[K(12Oc)2] [compound 1720]”, for which, in data set [2] (setting [7]), the Pdl stood at 0.196, the Z-average was 209.8 nm and the Zeta potential stood at 0.70 mV.

In the case of K[K[8Oc)2]2-Stp2 [compound 1730], the “RLU values of targeted polyplexes in comparison to shielded polyplexes” value in the data set on Huh7 cells (N/P 12, pDNA dose 50 ng/well) was 32.8 fold. Moreover, in the data set on Huh7 cells (N/P 12, pDNA dose 100 ng/well), the “RLU values of targeted polyplexes in comparison to shielded polyplexes” value was 25.5 fold. For the same molecule, in data set [2] (setting [10]), the Pdl was determined as 0.22, the Size came out at 100 and the Zeta worked out at 2.0. For the same molecule, in data set [2] (setting [11]), the Pdl is on record as 0.17, the Size was determined as 125 and the Zeta was found to be 2.0. In data set [2] (setting [12]), this molecule displayed a Pdl of 0.21, a Size of 109 and a Zeta of 15.9. For the same molecule, in data set [2] (setting [13]), the PDI is 0.10 ± 0.01, the Z-average is 95.3 ± 1.6 nm and the Zeta potential stood at 21.7 ± 0.6 mV.

Regarding K[K[12Oc)2]2-Stp [compound 1613], in data set [2] (setting [7]), the Pdl came to 0.159, the Z-average is 176.8 nm and the Zeta potential is on record as −3.03 mV.

For the molecule Stp-K[K(12Oc)2]-Stp [compound 1715], in data set [2] (setting [8]), the Pdl is listed as 0.100 ± 0.010, the Z-average came to 89.8 ± 1.4 nm and the Zeta potential is recorded as 24.47 ± 1.4 mV. In addition, the “dose dependence of pDNA transfection efficiency” value with N2a cells [4] is listed as “good performance only at the highest dose”.

Take “[K(8Oc)]2-Stp2-[K(8Oc)]2 [compound 1745]”: in data set [2] (setting [14]), the Pdl came out at 0.266 ± 0.046, the Z-average was determined as 99.4 ± 7.9 nm and the Zeta potential is listed as 11.9 ± 1.6 mV.

Regarding “[K(12He)]2-Stp2-[K(12He)]2 [compound 1760]”, the “in vivo luciferase expression of mRNA polyplexes” value in data set [1] (tumors, lungs, liver, spleen) is recorded as “great in vivo performance”.

Regarding “[K(12Oc)]2-Stp-[K(12Oc)]2 [compound 1718]”, in data set [2] (setting [6]), the Pdl is on record as 0.223, the Z-average was determined as 107.5 nm and the Zeta potential is recorded as 36.0 mV. Further, in data set [2] (setting [7]), the Pdl was 0.140, the Z-average was 198.1 nm and the Zeta potential came out at 0.03 mV.
